Results on one substance are retold here after EP4806904A1, “POLYPEPTIDE AND USE THEREOF” (Sichuan Gooddoctor Panxi Pharmaceutical Co. Ltd, priority 2023, dated 2026).

The subject of test [1] is primary neural stem cells (NSCs). Nature of the test: Differentiation of primary neural stem cells, MAP-2/GFAP immunofluorescence (Example 2.2). Type of test: cell-based, SD rats. The following applies: 0.02, 0.1, 0.5 mg/mL, 4 days, vs control group. As to the method:
(§1) This part of the experiment requires feeding male and female rats in advance, then extracting hippocampal neural stem cells from newborn SD rats within 24 h of birth, culturing them to P3 for identification, and then using them for experiments.
(§2) Extraction and culture of primary neural stem cells (NSCs): Hippocampal neural stem cells were extracted from neonatal SD […] 24 h after birth. The procedure is as follows: first, the neonatal rats were disinfected by soaking in 75% ethanol, then transferred to a biological safety cabinet for manipulation under aseptic conditions. After the entire brain was removed from the neonatal mouse, it was immediately placed in cold D-Hanks solution to remove non-neural tissue. Under a dissecting microscope, the meninges were carefully removed and the hippocampal structures on both sides were separated. The tissue was mechanically broken into flocculent pieces with a scalpel, pipetted, and the tissue sample was transferred to a 15 mL centrifuge tube and centrifuged at 800 rpm for 5 min. […]
Medium-sized neurospheres cultured at P3-P4 were collected, centrifuged at 800 rpm for 5 min, and the supernatant was discarded. […] Subsequently, the images were observed and collected under a fluorescence microscope, and the mean fluorescence intensities of MAP-2 and GFAP were statistically analyzed respectively.

The test system of test [2] is Brain microvascular endothelial cells (BMECs) and brain microvascular smooth muscle cells (BMVSMCs). Put plainly: In vitro angiogenesis assay, BMEC/BMVSMC co-culture on matrigel. It is filed as cell-based, mouse. The following applies: 0.1 mg/L, 48 h. A digest of the protocol: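 Mouse BMVSMCs (5×10^3) and BMECs (1×10^3) per well, passages 3-6, co-cultured on matrigel at 37 °C, 5% CO2. After medium change on day 4, polypeptide 0.1 mg/L or VEGFA 10/15/20 ng/L for 48 h; Hoechst/Calcein AM stained, imaged by high-content screening and angiogenesis quantified.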

For test [3], the system named is tMCAO rats. Nature of the test: Cortical index 14 days after ischemia-reperfusion injury. Type of test: in vivo, SD rats. The following applies: 10 mg/kg, tail vein, treatment for 14 days, P<0.01. As to the method: (§3) Experimental animals, model establishment, grouping and drug administration are the same as in Example 5.
(§4) The cortical index was calculated for each group of rats 14 days after ischemia-reperfusion injury. tMCAO rats were treated with the polypeptide compound 1 of the invention for 14 days, and the expression of PSD95 and SYP was detected by Western blot.

In test [4] the test system is primary neural stem cells (NSCs). Nature of the test: Differentiation of primary neural stem cells, βIII-tubulin fluorescence and Neurite Outgrowth Assay. Type of test: cell-based, SD rats. The following applies: 100 µg/mL. In a few lines: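 Hippocampal NSCs from newborn SD rats, passage 3, seeded at 5×10^4 cells/mL in 2% FBS DMEM/F12 differentiation medium. Polypeptide at final 100 µg/mL (NGF 50 ng/mL positive control) for 4 days. βIII-tubulin immunofluorescence intensity and neurite outgrowth quantified by high-content imaging.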

The test system of test [5] is PSD95 and SYP. Nature of the test: Western blot of PSD95 and SYP in hippocampus and cortex. Type of test: in vivo, SD rats. The following applies: treatment for 14 days, vs Vehicle group, P<0.05. The method, then: as §3, §4
The subject of test [6] is primary neural stem cells (NSCs). Nature of the test: Proliferation of primary neural stem cells, BrdU incorporation (Example 2.1). Type of test: cell-based, SD rats. The following applies: 0.02, 0.1, 0.5 mg/mL, 48 h, vs control group. As to the method: as §1
as §2, with “separated.” for “separated. The tissue was mechanically broken into flocculent pieces with a scalpel, pipetted, and the tissue sample was transferred to a 15 mL centrifuge tube and centrifuged at 800 rpm for 5 min.”
Medium-sized neurospheres formed from P3-P4 generations were centrifuged at 800 rpm for 5 min, the supernatant was discarded, a small amount of complete medium was added and pipetted to form a single-cell suspension, the cells were resuspended, counted, and seeded at 1.0 x 10^5 cells/mL into 24-well plates coated with 25 µg/mL PLL. […] Immunofluorescence staining was performed 4 h later, and the cells were then observed and photographed under a fluorescence microscope. The BrdU-positive cell rate was statistically analyzed.
(In general: Dividing cells build labelled thymidine or BrdU into new DNA.)

[7] abbreviates: significance vs blank control group.
The mark [8] stands for this setting: 4 days, significance vs blank control group.

For “H-ALPAPGTL-OH [Compound 1, H-Ala-Leu-Pro-Ala-Pro-Gly-Thr-Leu-OH]”, in test [1], the “mean fluorescence intensity of GFAP” value is listed as “significantly elevated” and the “mean fluorescence intensity of MAP-2” value is listed as “significantly elevated”. For the same substance, in test [2] (setting [7]), the Branch length result was “** (**p < 0.01)”, the Cell count entry is reported as “*** (***p < 0.001)” and the Number of intersections result is given as “* (*p < 0.05)”. Also, the angiogenesis-promoting effects result in test [2] (vs normal group, in words) was “exhibited angiogenesis-promoting effects”. In addition, in test [3], the cortical index result was “significantly increased”. In addition, the “neurite outgrowth (total neurite length, maximum neurite length, neurite terminals, neurite initiation points)” value in test [4] (4 days, Neurite Outgrowth Assay, in words) is “promote neurite outgrowth”. For the same substance, in test [4] (setting [8]), the Longest neurite length entry was “*** (***p < 0.001)”, the “Neurite initiation points (branches)” value is given as “*** (***p < 0.001)”, the “Number of neurite terminals” value is “*** (***p < 0.001)” and the Total neurite length result is on record as “** (**p < 0.01)”. For the same substance, the “mean fluorescence intensity of the neuronal marker protein βIII-tubulin” value in test [4] (4 days, vs blank control group, in words) is “significant increase”. In addition, the “differentiation of NSCs into neuronal cells” value in test [4] (conclusion based on the results of the two analytical methods) was “promote the differentiation of NSCs into neuronal cells with stable effects”. Moreover, the Average fluorescence intensity entry in test [4] (βIII-tubulin, 4 days, significance vs blank control group) was “** (**p < 0.01)”. Besides, in test [5], the “expression of PSD95” value is “significantly increased” and the “expression of SYP” value was “significantly increased”. Also, in test [6], the “percentage of BrdU-positive cells” value was “significantly increased”.
